Results as given in US9023843B2, “Antimicrobial compounds and methods of making and using the same” (Melinta Therapeutics, Inc., priority 2009, dated 2015).

What follows are compounds tested on Eschericia coli strain ATCC25922 (assay: standard microdilution assay to determine minimum inhibitory concentrations (MICs)). Settings: Escherichia coli, read-out: E. coli ATCC25922 MIC.
Format: cell-based
Method: Minimum inhibitory concentrations (MICs) are determined by the microdilution method, typically in a final volume of 100 microliters, according to protocols outlined by The Clinical and Laboratory Standards Institute [CLSI; formerly the National Committee for Clinical Laboratory Standards (NCCLS)]. See CLSI: Methods for dilution antimicrobial susceptibility tests for bacteria that grow aerobically; approved standard-fifth edition. Wayne, Pa.: NCCLS; 2000. The assays can be also be performed in microtiter trays according to conventional methodologies as published by the CLSI. See CLSI. Methods for Dilution Antimicrobial Susceptibility Tests for Bacteria That Grow Aerobically; Approved Standard-Seventh Edition. CLSI Document M7-A7 [ISBN 1-56238-587-9] CLSI, 940 West Valley Road, Suite 1400, Wayne Pa. 19087-1898 USA, 2006).
The compounds of the present invention were tested for antimicrobial activity. The compounds were run against Eschericia coli strain ATCC25922 using a standard microdilution assay to determine minimum inhibitory concentrations (MICs). […] A “N/A” means that data is unavailable. It will be recognized by one skilled in the art that the compounds can be assessed against other bacterial organisms and that the presentation of data for activity against Eschericia coli is illustrative and in no way is intended to limit the scope of the present invention. The compounds of the present invention can be assayed against a range of other microorganisms depending upon the performance activity desired to be gathered. Furthermore, the “+”, “−”, and “N/A” representation and the selection of a cutoff value of 16 micrograms/ml is also illustrative and in no way is intended to limit the scope of the present invention.

Row | Structure (SMILES) | MIC [µg/mL]
1 | NCCCNCc1ccc(-c2cn3c(=O)cc(-c4cc(F)c(F)cc4F)[nH]c3nc2=O)cc1 [Compound 362] | > 16
2 | NCCCNCc1ccc(-c2cn3c(=O)cc(Cc4ccc(C(F)(F)F)cc4)[nH]c3nc2=O)cc1 [Compound 367] | > 16
3 | COc1ccc(-c2cc(=O)n3cc(-c4ccc(CNCCCN)cc4)c(=O)nc3[nH]2)cc1 [Compound 378] | > 16
4 | COc1cc(-c2cc(=O)n3cc(-c4ccc(CNCCCN)cc4)c(=O)nc3[nH]2)cc(OC)c1OC [Compound 379] | > 16
5 | NCCCNCc1ccc(-c2cn3c(=O)cc(Cc4ccc5c(c4)OCO5)[nH]c3nc2=O)cc1 [Compound 380] | > 16
6 | NCCCNCc1ccc(-c2cn3c(=O)cc(-c4ccc(Cl)c(Cl)c4)[nH]c3nc2=O)cc1 [Compound 390] | > 16
7 | NCCCNCc1ccc(-n2cc3c(nc2=O)Nc2ccc(-c4ccc(F)cc4)cc2O3)cc1 [Compound 393] | > 16
8 | NCCCNCc1ccc(-n2cc3c(nc2=O)Nc2cc(Br)ccc2O3)cc1 [Compound 396] | > 16
9 | NCCCNCc1ccc(-n2cc3c(nc2=O)Nc2ccc(-c4cnc(N5CCOCC5)nc4)cc2O3)cc1 [Compound 400] | > 16
10 | NCCCNCc1ccc(-n2cc3c(nc2=O)Nc2cc(-c4ccc(F)cc4)ccc2O3)cc1 [Compound 402] | > 16
11 | NCCCNCc1ccc(-c2cn3c(=O)cc(Cc4ccc(F)c(F)c4)[nH]c3nc2=O)cc1 [Compound 411] | > 16
12 | NCCCNCc1ccc(-c2cn3c(=O)cc(Cc4ccc(Cl)c(Cl)c4)[nH]c3nc2=O)cc1 [Compound 430] | > 16
13 | NCCCNCc1ccc(-n2cc3c(nc2=O)Nc2cc(-c4cnc(N5CCOCC5)nc4)ccc2O3)cc1 [Compound 440] | > 16
14 | NCCCNCc1ccc(-c2cn3c(=O)cc(Cc4cccc([N+](=O)[O-])c4)[nH]c3nc2=O)cc1 [Compound 447] | > 16
15 | NCCCNCc1ccc(-n2cc3c(nc2=O)Nc2ccc(C#Cc4ccc(F)cc4)cc2O3)cc1 [Compound 460] | > 16
16 | NCCCN1CCC(n2cc3c(nc2=O)Nc2ccccc2O3)CC1 [Compound 528] | > 16
17 | N=C(N)NCCCN1CCC(n2cc3c(nc2=O)Nc2ccccc2O3)CC1 [Compound 529] | > 16

Row | Structure (SMILES) | MIC [µg/mL]
18 | NCCCCCN1CC[C@@H](n2cc3c(nc2=O)Nc2ccccc2O3)C1 [Compound 543] | > 16
19 | NCCCCCN1CCC(n2cc3c(nc2=O)Nc2ccccc2O3)CC1 [Compound 557] | > 16
20 | NCCCNCc1ccc(-n2cc3c(nc2=O)Nc2ccc(CCc4ccc(F)cc4)cc2O3)cc1 [Compound 558] | > 16
21 | NCCCN1CC=C(c2cnc3n(CCCN)c(-c4ccc(F)cc4)cn3c2=O)CC1 [Compound 568] | > 16
22 | NCCCN1CC=C(c2cnc3[nH]c(-c4ccc(F)cc4)cn3c2=O)CC1 [Compound 569] | > 16
23 | NCCCn1c(-c2ccc(F)cc2)cn2c(=O)c(C3=CCNCC3)cnc12 [Compound 570] | > 16
24 | N=C(N)NCCCCCN1CC[C@@H](n2cc3c(nc2=O)Nc2ccccc2O3)C1 [Compound 575] | > 16
25 | N=C(N)NCCCCCN1CCCC(n2cc3c(nc2=O)Nc2ccccc2O3)CC1 (centres unmarked) [Compound 576] | > 16
26 | O=c1nc2c(cn1C1CCNCC1)Oc1ccccc1N2 [Compound 578] | > 16
27 | NCCCN1CCC(n2cc3c(nc2=O)Nc2cc(CCc4cccc(F)c4)ccc2O3)CC1 [Compound 592, 3-[1-(3-Amino-propyl)-piperidin-4-yl]-7-[2-(3-fluoro-phenyl)-ethyl]-3H,9H-10-oxa-1,3,9-triaza-anthracen-2-one] | < 16
28 | NCCCCN1CCCC(n2cc3c(nc2=O)Nc2ccccc2O3)CC1 (centres unmarked) [Compound 604] | > 16
29 | COC(=O)c1ccc2c(c1)Nc1nc(=O)n(C3CCN(CCCN)CC3)cc1O2 [Compound 606] | > 16
30 | CN(C)c1ncc(-c2ccc3c(c2)Nc2nc(=O)n(C4CCN(CCCNC(=N)N)CC4)cc2O3)cn1 [Compound 627] | < 16
31 | N=C(N)NCCCN1CCC(n2cc3c(nc2=O)Nc2cc(C(=O)NCCc4nc5ccccc5[nH]4)ccc2O3)CC1 [Compound 641] | > 16
32 | N=C(N)NCCCN1CCC(n2cc3c(nc2=O)Nc2cc(C(=O)NCC(F)(F)C(F)(F)F)ccc2O3)CC1 [Compound 643] | > 16
33 | N=C(N)NCCCN1CCCC(n2cc3c(nc2=O)Nc2cc(C(=O)NCCCN4CCOCC4)ccc2O3)CC1 (centres unmarked) [Compound 658] | > 16

Next, values leading:

Row | MIC [µg/mL] | Structure (SMILES)
34 | > 16 | NCCCNCc1ccc(-c2cn3c(=O)cc(-c4ccccc4F)[nH]c3nc2=O)cc1 [Compound 360]
35 | > 16 | NCCCNCc1ccc(-c2cn3c(=O)cc(-c4ccccc4OC(F)(F)F)[nH]c3nc2=O)cc1 [Compound 371]
36 | > 16 | O=c1nc2[nH]c(-c3ccccc3F)cc(=O)n2cc1I [Compound 375]
37 | > 16 | NCCCNCc1ccc(-c2cn3c(=O)cc(-c4ccc(OC(F)(F)F)cc4)[nH]c3nc2=O)cc1 [Compound 377]
38 | > 16 | NCCCNCc1ccc(-c2cn3c(=O)cc(-c4ccc(C(F)(F)F)cc4)[nH]c3nc2=O)cc1 [Compound 391]
39 | > 16 | NCCCN1CCN(C(=O)Cn2cc3c(nc2=O)Nc2ccccc2O3)CC1 [Compound 392]
40 | > 16 | NCCCNCc1ccc(-c2cn3c(=O)cc(Cc4ccccc4OC(F)(F)F)[nH]c3nc2=O)cc1 [Compound 426]
41 | > 16 | NCCCNCc1ccc(-n2cc3c(nc2=O)Nc2ccc(Br)cc2O3)cc1 [Compound 442]
42 | > 16 | NCCCNCc1ccc(-c2cn3c(=O)cc(Cc4cc(F)c(F)cc4F)[nH]c3nc2=O)cc1 [Compound 469]
43 | > 16 | NCCCCCN1CCCC(n2cc3c(nc2=O)Nc2ccccc2O3)CC1 (centres unmarked) [Compound 544]
44 | > 16 | O=c1nc2c(cn1C1CCNCC1)Oc1ccc(CCc3cccc(F)c3)cc1N2 [Compound 579]
45 | > 16 | O=c1nc2c(cn1C1CCCNCC1)Oc1ccccc1N2 (centres unmarked) [Compound 595]
46 | > 16 | NCCCN1CCCC(n2cc3c(nc2=O)Nc2ccccc2O3)CC1 (centres unmarked) [Compound 598]
47 | < 16 | N=C(N)NCCCN1CCCC(n2cc3c(nc2=O)Nc2ccccc2O3)CC1 (centres unmarked) [Compound 603]
48 | > 16 | CN(C)c1ncc(-c2ccc3c(c2)Nc2nc(=O)n(C4CCN(CCCN)CC4)cc2O3)cn1 [Compound 614]
49 | > 16 | COc1ccc(-c2ccc3c(c2)Nc2nc(=O)n(C4CCN(CCCN)CC4)cc2O3)cc1F [Compound 615]
50 | > 16 | N=C(N)NCCCN1CCC(n2cc3c(nc2=O)Nc2cc(C(=O)NCc4ccc(Br)cc4)ccc2O3)CC1 [Compound 638]
51 | > 16 | N=C(N)NCCCN1CCC(n2cc3c(nc2=O)Nc2cc(C(=O)NCC(F)(F)F)ccc2O3)CC1 [Compound 639]
52 | > 16 | N=C(N)NCCCN1CCC(n2cc3c(nc2=O)Nc2cc(C(=O)NCCCN4CCOCC4)ccc2O3)CC1 [Compound 642]
53 | > 16 | N=C(N)NCCCN1CCC(n2cc3c(nc2=O)Nc2cc(-c4cccc(C(=O)N5CCOCC5)c4)ccc2O3)CC1 [Compound 651]
54 | > 16 | N=C(N)NCCCN1CCC(n2cc3c(nc2=O)Nc2cc(C(=O)Nc4ccc(F)cc4F)ccc2O3)CC1 [Compound 656]
55 | > 16 | N=C(N)NCCCN1CCCC(n2cc3c(nc2=O)Nc2cc(C(=O)Nc4ccc(F)cc4F)ccc2O3)CC1 (centres unmarked) [Compound 657]
56 | > 16 | N=C(N)NCCCN1CCC(n2cc3c(nc2=O)Nc2cc(C(=O)NCCc4ccc(F)cc4)ccc2O3)CC1 [Compound 659]
